This is an account of results in a melting point compilation (Tetko et al.; mined from patent text by program, amines drawn as free bases though some values may be those of a salt).

Broadly, the melting point is the temperature, or range, at which the solid turns liquid.

`O=C(NCc1ccc2c(c1)OCO2)Nc1cc(N2CC(c3ccccc3)CC2=O)ccn1` (stereo not given) yielded a melting point of 185 to 188 °C.

`CCCOc1ccc(OC)cc1C(N)=O` returned a melting point of 83 to 87 °C.

Consider `CCC(C)Cc1c(-c2ccc(C(N)=S)cc2Cl)c(C)nc2ncnn12` (stereo not given), for which the melting point fell in the range of 173 to 177 °C.

In turn, `Cn1nnc(-c2ccc(CNc3n[nH]c4ncnc(Nc5cccc(Cl)c5)c34)cc2)n1` had a melting point of 232 to 235 °C.

`COc1cc(C)c(N)c(C)c1C` showed a melting point of 70 to 72 °C.

In turn, `Nc1ccc(Cl)c(C(=O)NCC23CC4CC(CC(C4)C2)C3)c1` came in with a melting point of 214 °C.

Molecule `CSc1sc(C(C)=O)cc1[N+](=O)[O-]` yielded a melting point of 191 to 193 °C.

`CCOC(=O)c1c(S(=O)(=O)Nc2c(F)cccc2F)nn2c(C)cc(C)nc12` displayed a melting point of 88 to 110 °C.

Take `Clc1ccc2c(Nc3ccccc3)ncnc2c1`: the melting point fell in the range of 215 to 217 °C.

As to `O=C(NO)NCCCCC1CCSS1` (stereo not given), the melting point lay within 100 to 101 °C.

Regarding `CC(=O)SCSc1cnnn1C`, the melting point lay within 37 to 38 °C.

Molecule `NC(=O)NCc1ccc(Cl)cc1` yielded a melting point of 186 to 189 °C.

On to `CN(CC(O)c1ccc2[nH]c(=O)[nH]c2c1)C1CCC(c2ccccc2)CC1` (stereo not given), for which the melting point lay in the range of 238 to 239 °C.

Regarding `CNC(=O)c1cccc(NC(=O)Cc2ccc([N+](=O)[O-])cc2)c1`, the melting point fell in the range of 148 to 151 °C.

`CCc1nn(CCNC(=O)c2ccccc2)c(CC)c1Cc1cc(Cl)cc(Cl)c1` displayed a melting point of 115 to 117 °C.

The molecule `CN(C)Cc1ccc(Cc2cnc(N[N+](=O)[O-])[nH]c2=O)cn1` came in with a melting point of 234 to 238 °C.

Turning to `CC(C)(C)n1cc(-c2ccc(Oc3ccccc3)cc2)c2c(N)ncnc21`, the melting point fell in the range of 157 to 158 °C.

`CCOC(=O)CCN(c1ccccc1)S(=O)(=O)c1ccc2c(c1)nc(CNc1ccc(C#N)cc1)n2C` came in with a melting point of 188 to 191 °C.

As to `O=C1CCCN1Cc1ccc(CCn2cnc3cc(-c4ccc(Cl)cc4)sc3c2=O)cc1`, the melting point is 218 to 221 °C.

With `CN1C(C)(C(=O)OC(C)(C)C)COS1(=O)=O` (stereo not given), the melting point was in the range of 54 to 55 °C.

`COc1ccc2cc([C@H](C)C(=O)OCC(=O)N(C)CC(=O)OC(C)(C)C)ccc2c1` came in with a melting point of 103 to 104 °C.

On to `CC(C)N1Cc2cc(N)ccc2N(CCCl)S1(=O)=O`, for which the melting point was in the range of 154 to 156 °C.

In the case of `CC(C)(C)n1ncc(OCc2ccc(Oc3ccc(Cl)cc3)nc2)c(Cl)c1=O`, the melting point was 150 to 154 °C.

`COc1ccc(-c2csc(Nc3ccccc3)n2)cc1OC` had a melting point of 170 to 174 °C.

Turning to `CCOP(=O)(Cc1cccc(-c2nc(=O)c3ccccc3s2)n1)OCC`, the melting point turned out to be 116 °C.

Turning to `CCCC(CCC)C(=O)O/N=C(\C)[C@H]1CC[C@H]2[C@@H]3CCC4=CC(=O)CC[C@]4(C)[C@H]3CC[C@]12C`, the melting point lay within 78 to 80 °C.

Take `Cn1c(C(F)(F)F)nnc1S(C)(=O)=O`: the melting point is 96 °C.

For the molecule `COc1cccc(P2(=O)c3ccccc3CN2c2ccccc2)c1` (stereo not given), the melting point is 170 to 172 °C.

With `CC(=O)NCCC1CCc2ccc3nc(-c4ccccc4)oc3c21` (stereo not given), the melting point lay in the range of 124 to 126 °C.

For the molecule `CC1(C)NC(=O)N(c2ccc(Cl)c(C(F)(F)F)c2)C1=O`, the melting point is 152 to 153 °C.

On to `COC(=O)CSc1nc(N)c(C=O)nc1Cl`, for which the melting point fell in the range of 103 to 104 °C.

In turn, `Cc1nccn1CC(COc1cccc(Cl)c1)Sc1c(Cl)cccc1Cl` (stereo not given) came in with a melting point of 162 to 163 °C.

In turn, `Cc1ccc(-c2nnc(-c3ccco3)s2)cc1` gave a melting point of 111 to 113 °C.

Molecule `O=[N+]([O-])c1c(OS(=O)(=O)C(F)(F)F)nc2ccccc2c1OS(=O)(=O)C(F)(F)F` returned a melting point of 74.5 to 76 °C.

For `CCCCOc1cc(/C=C(\OCC)C(=O)O)ccc1OCCc1ccc(OS(C)(=O)=O)cc1OC`, the melting point turned out to be 112 °C.

In turn, `COc1ccc(C(=O)C#CCO)c(OC)c1OC` came in with a melting point of 82 to 83 °C.

In the case of `COc1cc(C=Cc2ccccc2)ccc1OCC(O)CCCc1cccnc1` (stereo not given), the melting point was in the range of 110 to 111 °C.

In turn, `O=C(C(=O)N(CCO)CCO)c1ccc(OCCOc2ccc3ccccc3c2)cc1` displayed a melting point of 128 to 133 °C.

As for `O=c1c[n+]([O-])c2cc(Cl)c(Cl)cc2[nH]1`, the melting point lay in the range of 278 to 280 °C.

The molecule `O=C(c1ccccc1C(c1ccc(O)cc1)c1ccc(O)cc1)N1CCN(c2ccccc2Cl)CC1` yielded a melting point of more than 300 °C.

Turning to `COc1ccc(C2Cc3c(cccc3C(F)(F)F)NC(=O)C2CO)cc1` (stereo not given), the melting point was 189 to 190 °C.

The molecule `NS(=O)(=O)c1ccc([C@H]2[C@H](C(=O)Nc3ccc(C(F)(F)F)cc3Cl)C23CCCC3)cc1` (relative stereo) returned a melting point of 111 to 113 °C.

`O=C(Cl)CCCC(=O)Cl` gave a melting point of 60.6 to 61.4 °C.

On to `CCOCCOc1cc(C)c(-c2cccc(COc3ccc(C=CC(=O)OC)cc3)c2)c(C)c1`, for which the melting point is 69 °C.

On to `CCCCNC(=S)Nc1cc(Cl)ccc1N1CCOCC1`, for which the melting point fell in the range of 150 to 152 °C.

Molecule `Cc1nn(-c2c(Cl)cc(C(F)(F)F)cc2Cl)c(N)c1C#N` showed a melting point of 194 to 196 °C.

In turn, `COc1ccc(CCN(C)C)c2[nH]c(=O)[nH]c12` displayed a melting point of 197 to 199 °C.

As for `Oc1cc2c3c(sc2c(Cl)c1Cl)CCCC3`, the melting point was 103 to 105 °C.

Turning to `C#CCN(C(=O)c1cc(C)oc1C(F)(F)F)S(=O)(=O)c1cccc(Cl)c1`, the melting point lay within 70 to 72 °C.

Turning to `CSCCCCCn1c(C)nc2c(N)nc(C)c(C)c21`, the melting point fell in the range of 121 to 122 °C.

In turn, `COC(=O)c1ccccc1Oc1ccc(S(=O)(=O)NCc2ccnc3ccccc23)cc1` registered a melting point of 163 to 166 °C.

Turning to `COc1cc(OCCBr)ccc1C=O`, the melting point was 78 to 79 °C.

In turn, `O=S1(=O)N=C(NC2CCCC2)Nc2sc(Cl)cc21` displayed a melting point of 280 to 282 °C.

Molecule `O=C(CCCN1CCCCC1)c1ccc2c(c1)Cc1cc(C(=O)CCCN3CCCCC3)ccc1-2` gave a melting point of 157 to 159 °C.

Molecule `O=c1cccc2nccncc1-2` displayed a melting point of 145 to 147 °C.

Take `COCCOc1ncc(Br)nc1-c1ccc(Cl)cc1`: the melting point fell in the range of 79 to 80 °C.

`CC(C)c1c(Sc2ccc(O)cc2)n(C)c2ccccc12` returned a melting point of 89 to 90 °C.

The molecule `COc1ccc2c3c(c(=O)oc2c1)CN(Cc1cccnc1)CC3` had a melting point of 107 to 110 °C.

Regarding `NS(=O)(=O)c1ccc(-c2c(-c3ccccc3)noc2COc2ccc(C(=O)O)cc2)cc1`, the melting point lay in the range of 206 to 208 °C.

In the case of `O=C(NCc1cccnc1)c1ccc2n1Cc1ccccc1N(C(=O)COc1ccc(Cl)cc1)C2`, the melting point lay within 169 to 171 °C.

Take `Cc1cc(=O)oc2cc(OS(N)(=O)=O)ccc12`: the melting point was 161 to 164 °C.

In turn, `c1cc(-c2ccc(N3CCNCC3)nc2)nc(Nc2ccc3cc[nH]c3c2)n1` yielded a melting point of 201 to 203 °C.

For `COC(=O)c1ccc2c(c1)OCC2(C)Cc1ccccc1` (stereo not given), the melting point is 52 °C.

The molecule `Cc1cc2nc(OC(C)C)nc(-c3cccc(C(F)(F)F)c3)c2s1` returned a melting point of 106 °C.

Consider `C=CCc1ccc(O)c(-c2cc(CC=C)ccc2O)c1`, for which the melting point fell in the range of 101 to 103 °C.

Molecule `CCCN1C(=O)C(NC(=O)Nc2cccc(N(C)c3nnn[nH]3)c2)N=C(N2CCN(C)CC2)c2ccccc21` (single isomer, unassigned; (-)) gave a melting point of 141 to 142 °C.

The molecule `COC(=O)COc1cc(C)c(SCc2sc(-c3ccc(C(F)(F)F)cc3)nc2C)c(C)c1` gave a melting point of 113 °C.

Consider `O=C1N[C@H](Cc2cccc(OCC(F)(F)C(F)F)c2)[C@H](c2ccc(F)cc2)O1` (racemic), for which the melting point lay within 113 to 114 °C.

Turning to `CC1C(c2ccc([N+](=O)[O-])cc2)CC(=O)N1C` (stereo not given), the melting point lay in the range of 94 to 95 °C.

In turn, `CCC(C)OC(=O)CNC(=O)[C@@H](Cc1ccccc1)CN1CC[C@@](C)(c2cccc(O)c2)[C@@H](C)C1` (stereo not given in full) displayed a melting point of 94 °C.

On to `CCOC(=O)Cc1sc(SCc2cc(O)nc(C)n2)nc1C`, for which the melting point lay in the range of 131 to 132 °C.

Molecule `N#CCCN1CCC2C(C1)c1ccccc1N2c1ccccc1` (stereo not given) showed a melting point of 108 °C.

Take `Cc1cnc(Br)c(F)c1`: the melting point was in the range of 32 to 33 °C.

`Cc1cc(Cl)nc(Br)c1` registered a melting point of 76 °C.

The molecule `CNC(=NS(C)(=O)=O)NCCSCc1csc(CN(C)C)n1` came in with a melting point of 95 to 97 °C.

On to `FC(F)(F)C(c1ccc(Cl)cc1)C(c1ccccc1)c1ccc(OCC2CO2)cc1` (stereo not given), for which the melting point lay in the range of 141 to 144 °C.

Molecule `CCCCCCCCCCCCCCCCCC(=O)N1CC1C#N` (stereo not given) displayed a melting point of 85 to 88 °C.

As for `COc1ccc2c(c1)C(Oc1ccccc1)=C(C(=O)O)S2=O` (stereo not given), the melting point lay within 204 to 206 °C.

With `Cn1cc(C2=C(c3cn(C(=O)C(C)(C)C)c4cc([N+](=O)[O-])ccc34)C(=O)NC2=O)c2ccccc21`, the melting point is more than 245 °C.

Consider `N#Cc1c(N)cccc1N1CCCC1`, for which the melting point lay within 112 to 114 °C.

Consider `COCC(=O)N[C@H]1CC[C@H](Nc2nccc(-n3nnc4ccccc43)n2)CC1`, for which the melting point was 234 to 235 °C.

As for `CC#CCOc1ccc(S(=O)(=O)NC2(C(=O)O)CCCCC2)cc1`, the melting point lay within 112 to 114 °C.

The molecule `Clc1ccc(Sc2cc(NCCN3CCOCC3)nc(-c3ccc(Cl)cc3)n2)cc1` registered a melting point of 159 to 161 °C.

Take `CON=C(c1ccc2c(c1)sc(=O)n2CCOc1ccc(CC(OCC(F)(F)F)C(=O)O)cc1)C1CC1` (stereo not given): the melting point lay within 33 to 34 °C.

`Cc1onc(NS(=O)(=O)c2ccccc2-c2ccc(-c3ncco3)cc2CN2CCC(C)(C)C2=O)c1C` showed a melting point of 110 to 117 °C.

For the molecule `Nc1ccc(N2CCN(CCCC(=O)c3ccc(F)cc3)CC2)nc1N`, the melting point is 128 to 130 °C.

`CCc1cc(CC)c2ccc(N)nc2n1` displayed a melting point of 187 to 189 °C.

For `CN(C=C(C#N)C(=O)Nc1ccccc1Cl)Cc1ccccc1Cl`, the melting point is 138 to 139 °C.

Turning to `O=c1[nH]nc2c3c(cccc13)Oc1ccc(COP(=O)(OCc3ccccc3)OCc3ccccc3)cc1-2`, the melting point is 223 to 225 °C.

Turning to `C#Cc1ccc2c(c1)c(=O)c(C(=O)OCC)cn2CC`, the melting point is 185 to 187 °C.
